ChEMBL document CHEMBL5370608, “Selective and Bioavailable HDAC6 2-(Difluoromethyl)-1,3,4-oxadiazole Substrate Inhibitors and Modeling of Their Bioactivation Mechanism” (J Med Chem, 2023)
Converted amounts (≈) assume the structure as drawn.

Key:
[1] = target: T1, Protein deacetylase HDAC6 (Homo sapiens, UniProt Q9UBN7); test: Inhibition of human recombinant HDAC6 incubated for 30 mins by fluorimetry analysis
T1 sequence (Q9UBN7 whole entry): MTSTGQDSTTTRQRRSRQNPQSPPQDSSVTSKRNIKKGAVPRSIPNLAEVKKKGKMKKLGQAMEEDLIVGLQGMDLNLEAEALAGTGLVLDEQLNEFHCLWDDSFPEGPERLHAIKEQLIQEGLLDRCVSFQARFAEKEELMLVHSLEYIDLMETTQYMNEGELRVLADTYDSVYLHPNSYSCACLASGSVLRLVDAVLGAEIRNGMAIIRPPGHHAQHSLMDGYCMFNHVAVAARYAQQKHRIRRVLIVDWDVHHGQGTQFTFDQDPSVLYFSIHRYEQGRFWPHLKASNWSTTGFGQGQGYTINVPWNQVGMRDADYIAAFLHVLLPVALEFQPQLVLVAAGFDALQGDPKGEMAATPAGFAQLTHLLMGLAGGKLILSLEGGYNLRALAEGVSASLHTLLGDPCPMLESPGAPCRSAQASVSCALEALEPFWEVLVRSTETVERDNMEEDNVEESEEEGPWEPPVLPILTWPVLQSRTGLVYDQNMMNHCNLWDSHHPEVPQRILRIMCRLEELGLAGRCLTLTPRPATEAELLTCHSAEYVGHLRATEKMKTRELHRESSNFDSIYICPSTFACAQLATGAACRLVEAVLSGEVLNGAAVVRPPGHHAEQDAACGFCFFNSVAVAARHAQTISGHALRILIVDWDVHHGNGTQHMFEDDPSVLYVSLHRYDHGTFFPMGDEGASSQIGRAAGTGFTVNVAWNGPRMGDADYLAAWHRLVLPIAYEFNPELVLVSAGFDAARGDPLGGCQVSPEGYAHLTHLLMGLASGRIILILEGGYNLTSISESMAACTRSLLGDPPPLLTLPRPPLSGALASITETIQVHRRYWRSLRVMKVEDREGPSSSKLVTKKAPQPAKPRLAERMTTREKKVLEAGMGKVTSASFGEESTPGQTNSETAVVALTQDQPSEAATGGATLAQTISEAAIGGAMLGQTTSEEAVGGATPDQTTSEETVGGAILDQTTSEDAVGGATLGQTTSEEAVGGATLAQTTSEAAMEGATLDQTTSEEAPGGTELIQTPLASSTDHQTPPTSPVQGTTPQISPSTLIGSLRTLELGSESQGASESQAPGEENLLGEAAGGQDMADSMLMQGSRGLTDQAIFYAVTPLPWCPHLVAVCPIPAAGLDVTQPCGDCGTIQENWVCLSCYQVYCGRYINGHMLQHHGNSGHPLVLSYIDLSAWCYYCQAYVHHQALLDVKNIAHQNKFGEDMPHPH

[2] = target: T1, Protein deacetylase HDAC6; test: Inhibition of HDAC6 in human BEAS-2B cells assessed as deacetylation of acetylated alpha-tubulin level incubated for 24 hrs by Western blot analysis; type: cell-based
Histone deacetylase 9 = Histone deacetylase 9 (Homo sapiens, UniProt Q9UKV0); test: Inhibition of human recombinant HDAC9 incubated for 30 mins by fluorimetry analysis
Sequence of Histone deacetylase 9 (Q9UKV0 whole entry): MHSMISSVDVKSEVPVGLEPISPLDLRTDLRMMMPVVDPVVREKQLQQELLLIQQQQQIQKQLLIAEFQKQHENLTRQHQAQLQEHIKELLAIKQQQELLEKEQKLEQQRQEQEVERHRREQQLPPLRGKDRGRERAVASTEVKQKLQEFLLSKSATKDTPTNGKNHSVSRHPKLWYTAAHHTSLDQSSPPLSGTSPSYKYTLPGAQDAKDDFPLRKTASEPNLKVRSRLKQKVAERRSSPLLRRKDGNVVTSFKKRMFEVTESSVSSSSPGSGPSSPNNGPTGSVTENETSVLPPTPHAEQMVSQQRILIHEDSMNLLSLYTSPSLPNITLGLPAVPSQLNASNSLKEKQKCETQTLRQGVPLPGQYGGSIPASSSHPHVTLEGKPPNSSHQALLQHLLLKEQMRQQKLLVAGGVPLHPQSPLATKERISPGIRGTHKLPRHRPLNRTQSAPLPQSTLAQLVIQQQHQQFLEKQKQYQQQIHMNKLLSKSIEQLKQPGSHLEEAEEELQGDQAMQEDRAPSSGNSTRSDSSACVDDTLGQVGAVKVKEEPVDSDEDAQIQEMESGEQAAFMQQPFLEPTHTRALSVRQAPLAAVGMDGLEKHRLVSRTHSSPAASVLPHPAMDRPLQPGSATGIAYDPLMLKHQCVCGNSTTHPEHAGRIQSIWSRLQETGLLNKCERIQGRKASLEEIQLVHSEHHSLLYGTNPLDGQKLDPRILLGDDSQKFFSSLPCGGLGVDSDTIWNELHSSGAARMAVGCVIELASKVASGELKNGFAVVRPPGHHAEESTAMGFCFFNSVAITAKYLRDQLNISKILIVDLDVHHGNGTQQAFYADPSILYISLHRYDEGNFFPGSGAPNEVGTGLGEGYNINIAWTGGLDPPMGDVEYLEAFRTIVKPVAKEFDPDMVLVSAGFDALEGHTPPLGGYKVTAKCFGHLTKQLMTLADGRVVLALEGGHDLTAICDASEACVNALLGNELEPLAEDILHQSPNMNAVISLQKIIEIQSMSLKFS

Histone deacetylase 8 = target: T2, Histone deacetylase 8 (Homo sapiens, UniProt Q9BY41); test: Inhibition of human recombinant HDAC8 incubated for 60 mins by fluorimetry analysis
T2 sequence (Q9BY41 whole entry): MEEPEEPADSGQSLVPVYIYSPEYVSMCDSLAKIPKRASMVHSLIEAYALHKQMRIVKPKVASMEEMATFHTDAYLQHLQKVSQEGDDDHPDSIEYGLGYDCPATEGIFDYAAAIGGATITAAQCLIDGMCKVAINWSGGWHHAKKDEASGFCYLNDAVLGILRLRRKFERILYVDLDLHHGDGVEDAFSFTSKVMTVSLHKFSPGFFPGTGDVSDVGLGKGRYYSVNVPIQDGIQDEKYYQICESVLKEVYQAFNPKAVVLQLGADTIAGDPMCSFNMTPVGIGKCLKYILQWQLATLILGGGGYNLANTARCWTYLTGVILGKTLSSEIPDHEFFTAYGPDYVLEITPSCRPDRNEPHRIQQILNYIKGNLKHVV

[3] = target: T1, Protein deacetylase HDAC6; test: Stability of the compound assessed as full-length human HDAC6 mediated-drug degradation measured after 96 hrs by time-resolved mass spectrometry analysis; type: ADME
Histone deacetylase 11 = target: T3, Histone deacetylase 11 (Homo sapiens, UniProt Q96DB2); test: Inhibition of human recombinant HDAC11 incubated for 30 mins by fluorimetry analysis
T3 sequence (Q96DB2 whole entry): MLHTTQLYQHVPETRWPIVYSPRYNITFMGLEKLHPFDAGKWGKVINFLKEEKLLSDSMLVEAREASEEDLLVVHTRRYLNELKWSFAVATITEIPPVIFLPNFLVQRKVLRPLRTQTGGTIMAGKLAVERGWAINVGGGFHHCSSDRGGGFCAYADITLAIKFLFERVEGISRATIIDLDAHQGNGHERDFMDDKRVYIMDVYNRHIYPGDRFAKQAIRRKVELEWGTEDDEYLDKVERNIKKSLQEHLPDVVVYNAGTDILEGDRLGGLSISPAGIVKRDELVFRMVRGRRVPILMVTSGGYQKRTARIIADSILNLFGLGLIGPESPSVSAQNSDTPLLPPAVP

[4] = target: T1, Protein deacetylase HDAC6; test: Inhibition of full length TEV-cleavable N-terminal His6-tagged human recombinant HDAC6 using Ac-RGK (Ac)-AMC as substrate preincubated for 20 hrs followed by substrate addition and measured after 3 hrs by microplate reader analysis
[5] = Aqueous solubility of the compound at pH 7.4; type: physicochemical
[6] = target: T4, Polyamine deacetylase HDAC10 (Homo sapiens, UniProt Q969S8); test: Inhibition of human recombinant HDAC10 incubated for 45 mins by fluorimetry analysis
T4 sequence (Q969S8 whole entry): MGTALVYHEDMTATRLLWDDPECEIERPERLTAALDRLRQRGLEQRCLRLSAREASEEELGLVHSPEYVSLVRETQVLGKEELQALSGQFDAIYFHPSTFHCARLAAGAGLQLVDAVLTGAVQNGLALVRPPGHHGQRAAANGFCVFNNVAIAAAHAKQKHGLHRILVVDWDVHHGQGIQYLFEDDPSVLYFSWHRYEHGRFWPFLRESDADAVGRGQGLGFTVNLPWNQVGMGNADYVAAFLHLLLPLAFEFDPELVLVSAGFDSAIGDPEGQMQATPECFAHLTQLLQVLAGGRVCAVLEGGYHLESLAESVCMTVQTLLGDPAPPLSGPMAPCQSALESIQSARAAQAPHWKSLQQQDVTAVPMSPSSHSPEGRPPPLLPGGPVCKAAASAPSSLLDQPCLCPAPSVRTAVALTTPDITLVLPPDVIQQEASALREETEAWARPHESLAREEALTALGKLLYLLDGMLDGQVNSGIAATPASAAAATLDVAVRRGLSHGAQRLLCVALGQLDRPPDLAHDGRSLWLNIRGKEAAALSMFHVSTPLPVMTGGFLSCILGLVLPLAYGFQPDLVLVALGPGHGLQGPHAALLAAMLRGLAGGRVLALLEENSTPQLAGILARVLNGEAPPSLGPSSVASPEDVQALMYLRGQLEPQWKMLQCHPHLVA

IC50 [1] | EC50 [2] | IC50 (Histone deacetylase 9) | IC50 (Histone deacetylase 8) | Stability [3] | IC50 (Histone deacetylase 11) | IC50 [4] | solubility [5] | IC50 [6] | Structure (SMILES)
< 0.01 µM | 0.0794 µM | 19 µM | 16 µM | Stable | 13 µM | 0.00398 µM | 810 µM (≈ 282 µg/mL) | 18 µM | O=C(NO)c1cnc(NC2(c3ccccc3)CCC(F)(F)CC2)nc1
0.58 µM | 0.0631 µM | 19 µM | > 100 µM | Unstable | > 100 µM | 0.00158 µM | 110 µM (≈ 54.4 µg/mL) | > 100 µM | CS(=O)(=O)NCC(Nc1ncc(-c2nnc(C(F)F)o2)cn1)c1ccc(OC(F)(F)F)cc1 (stereo not given)
0.17 µM | 0.316 µM | > 100 µM | > 100 µM | – | > 100 µM | 0.00158 µM | 60 µM (≈ 23.1 µg/mL) | > 100 µM | COc1ccccc1-c1nnn(Cc2ccc(-c3nnc(C(F)F)o3)cn2)n1
0.19 µM | 0.251 µM | > 100 µM | > 100 µM | Unstable | > 100 µM | 0.001 µM | 410 µM (≈ 146 µg/mL) | > 100 µM | FC(F)c1nnc(-c2ccc(Cn3nnc(-c4ccccn4)n3)nc2)o1
